Source: PubChem BioAssay AID720588 (Broad Institute, 2013)
Activity calls are given as the source filed them.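 The calls were made as follows: active = fitted curve falls past a set limit of signal loss at no more than twice the top dose; inconclusive = flat fit between 30 and 70% signal loss, or poor fit; inactive = signal rise, flat within 30%, or crossing too high.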

Assay: HEK293T cell cytotoxicity, dose response, cytotoxicity control, CellTiter-Glo luminescence, cherry-pick, set 3 (AID 720588)
Conditions: HEK293T viability, CellTiter-Glo ATP luminescence, 72 h; at 8 µM (top of the series)
For C[C@H](CO)N1C[C@H](C)[C@H](CN(C)Cc2ccc(C(F)(F)F)cc2)Oc2ccc(NC(=O)CCCCCC(=O)Nc3ccccc3N)cc2CC1=O, the activity change, negative = cytotoxicity was 50% (inactive).

Same assay, conditions: HEK293T viability, CellTiter-Glo ATP luminescence, 72 h; at 21 µM (top of the series)
With C[C@H]1CN([C@@H](C)CO)C(=O)Cc2cc(NC(=O)CCC(F)(F)F)ccc2O[C@H]1CN(C)Cc1ccc(C(=O)Nc2ccccc2N)cc1 the activity change, negative = cytotoxicity was -31.3% (inactive).

Same assay, conditions: HEK293T viability, CellTiter-Glo ATP luminescence, 72 h; at 23.5 µM (top of the series)
For N#C[C@H]1N[C@H](CO)[C@H]1c1ccc(C#Cc2ccccc2F)cc1, the activity change, negative = cytotoxicity was -11.8% (inactive). In the case of COC(=O)C[C@@H]1CC[C@@H]2[C@@H](COc3ccc(NC(=O)Nc4cccc(Cl)c4)cc3C(=O)N2C)O1, the activity change, negative = cytotoxicity is reported as 4.77% (inactive). In the case of COc1ccccc1NC(=O)N1[C@@H]2CNC[C@H]1[C@@H]2c1ccc(-c2ccc(C#N)cc2)cc1, the activity change, negative = cytotoxicity is reported as -30.3% (inactive).

Same assay, conditions: HEK293T viability, CellTiter-Glo ATP luminescence, 72 h; at 26 µM (top of the series)
For O=C(Nc1ccc(NC(=O)c2cc3ccccc3o2)cc1)c1ccc2c(c1)OCCO2, the activity change, negative = cytotoxicity was 7.63% (inactive). In the case of CCCNC(=O)[C@@H]1[C@@H](CO)[C@@H]2Cn3c(ccc(-c4ccccc4)c3=O)[C@H]1N2C(=O)CC, the activity change, negative = cytotoxicity is reported as 22.7% (inactive). In the case of COc1ccc(NC(=O)N(C)[C@H]2C[C@H]3c4[nH]c5ccccc5c4CCN3C(=O)[C@H]2CO)cc1, the activity change, negative = cytotoxicity is reported as -20.7% (inactive). With COc1cc(/C=C/C(=O)CC(=O)/C=C/c2ccc(O)c(OC)c2)ccc1O the activity change, negative = cytotoxicity was -41.3% (inactive). For COc1ccc(S(=O)(=O)N=Nc2c(O)[nH]c3ccccc23)cc1, the activity change, negative = cytotoxicity was 16.2% (inactive). For O=C(NCc1cccnc1)C1Cc2c(-c3ccc(Cl)cc3)ccnc2O1 (stereo not drawn), the activity change, negative = cytotoxicity was -17.5% (inactive). In the case of CCC1=Nc2cc(C(=O)NCC3CCCO3)ccc2Sc2ccc(Br)cc21 (stereo not drawn), the activity change, negative = cytotoxicity is reported as -27.1% (inactive). With CC(Oc1cccc(Cl)c1)C(=O)NCCCCc1ccccc1 (stereo not drawn) the activity change, negative = cytotoxicity was -2.08% (inactive). For Cc1cc(C)cc(C(=O)NC(=S)Nc2ccc(Cc3ccncc3)cc2)c1, the activity change, negative = cytotoxicity was -25.9% (inactive). In the case of O=C(NC(c1ccc(F)cc1)c1ccc2ccccc2n1)C1CCN(Cc2cccc(C(F)(F)F)c2)CC1 (stereo not drawn), the activity change, negative = cytotoxicity is reported as -38.4% (inactive). For COc1ccc2nc(-c3ccc(F)cc3)sc2c1, the activity change, negative = cytotoxicity was -5.49% (inactive). For CCN1CCN(/C=N/c2nc3c(s2)CCCC3)CC1, the activity change, negative = cytotoxicity was -6.91% (inactive). With COc1ccc(/C=C2\SC(=S)N(CCCC(=O)NNC(=O)c3ccccc3O)C2=O)cc1 the activity change, negative = cytotoxicity was 13.3% (inactive). With O=c1cc(CN2CCN(Cc3ccccc3)CC2)c2ccc(O)c(O)c2o1 the activity change, negative = cytotoxicity was 28.6% (inactive). In the case of C[C@@H]1CN([C@H](C)CO)C(=O)c2cc(NC(=O)CCCCCC(=O)Nc3ccccc3N)ccc2O[C@@H]1CN(C)Cc1ccc(Cl)c(Cl)c1, the activity change, negative = cytotoxicity is reported as -5.39% (inactive). For CCOC(=O)C1CCCCN1C(=O)CCc1c(C)nc2cc(-c3ccccc3)nn2c1C (stereo not drawn), the activity change, negative = cytotoxicity was -10.8% (inactive). For Cc1occc1-c1n[nH]c(=S)n1C, the activity change, negative = cytotoxicity was -10.6% (inactive). For C(=Cc1c[nH]c2ccccc12)c1ccc2ccccc2n1, the activity change, negative = cytotoxicity was -26.3% (inactive). For C[C@H](CO)N1C[C@H](C)[C@H](CN(C)Cc2ccc(C(=O)Nc3ccccc3N)cc2)Oc2ccc(NS(=O)(=O)c3cccs3)cc2C1=O, the activity change, negative = cytotoxicity was -25.3% (inactive). In the case of C[C@H]1CN([C@@H](C)CO)C(=O)c2cccc(NC(=O)CCCCCC(=O)Nc3ccccc3N)c2O[C@@H]1CN(C)Cc1ccc2c(c1)OCO2, the activity change, negative = cytotoxicity is reported as -20.1% (inactive). For CCCc1cc(=O)oc2c3c(c4c(c12)OC(C)(C)C=C4)OC(C)C(C)C3O (stereo not drawn), the activity change, negative = cytotoxicity was -7.17% (inactive). For O=c1[nH]c(=O)n([C@H]2C[C@H](O)[C@@H](CO)O2)cc1C(F)(F)F, the activity change, negative = cytotoxicity was -10.4% (inactive). With Cc1c(Cl)cnc(NC(=O)COC(=O)c2ccc3ncsc3c2)c1Cl the activity change, negative = cytotoxicity was 13.6% (inactive). For Cc1ccsc1C(=O)OCC(=O)c1cc(C)n(C)c1C, the activity change, negative = cytotoxicity was -19.5% (inactive). With CC1=NC(=O)C(N=Nc2cccc(C(=O)O)c2)N1c1ccccc1 (stereo not drawn) the activity change, negative = cytotoxicity was -10% (inactive). With C[C@H](CO)N1C[C@H](C)[C@H](CN(C)Cc2ccc(C(=O)Nc3ccccc3N)cc2)Oc2ccc(N(C)C)cc2C1=O the activity change, negative = cytotoxicity was -25.7% (inactive). In the case of Cc1ccc(-c2ccc3c(c2)O[C@@H](CN(C)C(=O)Nc2ccc(F)cc2)[C@H](C)CN([C@@H](C)CO)S3(=O)=O)cc1, the activity change, negative = cytotoxicity is reported as 48.8% (inactive). In the case of C[C@H](CO)N1C[C@H](C)[C@@H](CN(C)Cc2ccc(Oc3ccccc3)cc2)Oc2ccc(NS(=O)(=O)c3ccc(Cl)cc3)cc2CC1=O, the activity change, negative = cytotoxicity is reported as -17.7% (inactive). In the case of CCc1ccc(/C=C2\SC(=S)N(CCCC(=O)NC3=NCCS3)C2=O)cc1, the activity change, negative = cytotoxicity is reported as -17.5% (inactive). For Nc1ccc2c(c1)OC1(CCCC1)O2, the activity change, negative = cytotoxicity was -16.1% (inactive). For O=C(CCCN1C(=O)/C(=C/c2ccccc2Cl)SC1=S)NNC(=O)c1ccc(Cl)cc1, the activity change, negative = cytotoxicity was 24.3% (inactive). For CCCN(C)C[C@H]1Oc2ncc(-c3ccccc3)cc2C(=O)N([C@@H](C)CO)C[C@H]1C, the activity change, negative = cytotoxicity was 2.32% (inactive). For COCC(=O)Nc1ccc2c(c1)[C@@H]1C[C@@H](CC(=O)NCc3ccc(-c4ccccc4)cc3)O[C@@H](CO)[C@@H]1O2, the activity change, negative = cytotoxicity was 13.6% (inactive). With COc1cc(-c2coc3c(C(=O)NCc4ccc(C(F)(F)F)cc4)cccc23)ccc1O the activity change, negative = cytotoxicity was -23% (inactive). In the case of CO[C@H]1CN(C)C(=O)c2cc(NC(=O)NC(C)C)ccc2OC[C@H](C)N(Cc2ccc(-c3ccccn3)cc2)C[C@@H]1C, the activity change, negative = cytotoxicity is reported as -13.6% (inactive). In the case of N=c1ccn2c(n1)O[C@H]1[C@H](O)[C@@H](CO)O[C@H]12, the activity change, negative = cytotoxicity is reported as -7.04% (inactive). In the case of O=C1c2ccccc2C(=O)N1CCCCNc1ccccc1, the activity change, negative = cytotoxicity is reported as 4.32% (inactive). In the case of COc1ccc(/C=C2\SC(=O)N(CCCC(=O)Nc3cc(Cl)ccc3C(=O)O)C2=O)cc1, the activity change, negative = cytotoxicity is reported as -2.58% (inactive). For CCOc1ccc(NC(=O)C(=O)N/N=C\c2ccc(CNS(=O)(=O)c3ccccc3)o2)cc1, the activity change, negative = cytotoxicity was -24.2% (inactive). In the case of Cc1ccsc1C(=O)OCC(=O)NCCC1=CCCCC1, the activity change, negative = cytotoxicity is reported as -24.7% (inactive). In the case of Cc1ccc(Cc2c(-c3ccco3)nc3c(C)cc(Br)cn23)cc1, the activity change, negative = cytotoxicity is reported as 15.5% (inactive). In the case of O=C(c1cccc(S(=O)(=O)NCc2ccccc2)c1)N1CCN(c2ccccc2)CC1, the activity change, negative = cytotoxicity is reported as -21.2% (inactive). In the case of C[C@@H]1CN([C@@H](C)CO)C(=O)Cc2cc(NS(=O)(=O)c3cccs3)ccc2O[C@H]1CN(C)Cc1ccc(Cl)c(Cl)c1, the activity change, negative = cytotoxicity is reported as -34.4% (inactive). For COC(=O)C[C@H]1CC[C@H]2[C@H](COc3ccc(NC(=O)Nc4cccc(Cl)c4)cc3C(=O)N2C)O1, the activity change, negative = cytotoxicity was -28.3% (inactive). With CC(=O)N1CCCC(c2cc(C(=O)Nc3ccccc3)no2)C1 (stereo not drawn) the activity change, negative = cytotoxicity was -1.97% (inactive). In the case of COc1ccc(C(=O)NCCNc2nc3cc(C)cc(C)c3cc2C#N)c(OC)c1, the activity change, negative = cytotoxicity is reported as -16.7% (inactive). For CC(C)c1ccccc1NC(=O)COC(=O)CCN1C(=O)/C(=C\C=C\c2ccccc2)SC1=S, the activity change, negative = cytotoxicity was -10.7% (inactive). For Cc1noc(C)c1C(=O)Nc1sccc1C(N)=O, the activity change, negative = cytotoxicity was 18% (inactive). In the case of C/C(=N\OCc1cccc(C(=O)O)c1)c1ccc(Cl)cc1, the activity change, negative = cytotoxicity is reported as -6.62% (inactive). With COc1ccc(CCC(C)NCC2CCCCC2)cc1 (stereo not drawn) the activity change, negative = cytotoxicity was 4.78% (inactive). In the case of Cc1ccccc1NC(=O)C(=Cc1ccc(C(=O)O)cc1)C(=O)Nc1ccccc1C, the activity change, negative = cytotoxicity is reported as -47.2% (inactive). In the case of COc1cc(C(c2c(C)[nH][nH]c2=O)c2c(C)[nH][nH]c2=O)ccc1OC(C)C, the activity change, negative = cytotoxicity is reported as -1.41% (inactive). In the case of O=C(Nc1cccc(Oc2ccc3c(c2)C(=O)NC3=O)c1)c1cccs1, the activity change, negative = cytotoxicity is reported as -22.5% (inactive). For COc1ccc(NC(=O)N2CCCCN3[C@H](CO)[C@H](c4ccc(C#CCC(C)C)cc4)[C@H]3C2)cc1, the activity change, negative = cytotoxicity was -56.2% (inactive). In the case of CCN(CC)c1ccc(C2NC(=O)c3ccccc3N2)cc1 (stereo not drawn), the activity change, negative = cytotoxicity is reported as -18.3% (inactive). With Cc1ccc2c(c1)C(=O)N1[C@H]3c4cc(Br)ccc4OC[C@@H]3[C@H](c3ccccc3)[C@]1(C)C(=O)N2 the activity change, negative = cytotoxicity was -13.8% (inactive). In the case of CC(=O)c1ccc(N=C2C(=O)Nc3ccccc32)cc1, the activity change, negative = cytotoxicity is reported as -11.5% (inactive). For Cc1ccsc1/C=N/Nc1cccc(C(=O)O)c1, the activity change, negative = cytotoxicity was -23% (inactive). For C[C@@H]1CN([C@@H](C)CO)C(=O)Cc2cc(N(C)C)ccc2O[C@@H]1CN(C)Cc1ccccc1, the activity change, negative = cytotoxicity was -17.5% (inactive). For COC(=O)Cc1ccc(NC(=O)c2ccccc2Cl)cc1, the activity change, negative = cytotoxicity was -2.38% (inactive). For c1cncc(-c2ccc([C@@H]3[C@H]4CNC[C@@H]3N4CC3CCOCC3)cc2)c1, the activity change, negative = cytotoxicity was 61.9% (inactive). For CCCCNC(=O)C(c1ccc(OCC(=O)OC)c(C(=O)OC)c1)N(CCOC)C(=O)CCCCCN1C(=O)NC(c2ccc(-c3ccccc3)cc2)C(C(=O)OCc2ccccc2)=C1C (stereo not drawn), the activity change, negative = cytotoxicity was 2.6% (inactive). With O=C(O)c1cccc(N/N=C/c2cccs2)c1 the activity change, negative = cytotoxicity was -19.1% (inactive). With O=C(O)c1ccc(N/N=C/c2cc(Br)cs2)cc1 the activity change, negative = cytotoxicity was -9.61% (inactive). In the case of C[C@@H]1CCCCO[C@@H](CN(C)C(=O)Cc2ccccc2)[C@@H](C)CN([C@@H](C)CO)C(=O)c2cc(NS(=O)(=O)c3ccc(F)cc3)ccc2O1, the activity change, negative = cytotoxicity is reported as 4.58% (inactive). With C[C@H](CO)N1C[C@H](C)[C@H](CN(C)Cc2ccc(Oc3ccccc3)cc2)Oc2ccc(NC(=O)CCCCCC(=O)Nc3ccccc3N)cc2CC1=O the activity change, negative = cytotoxicity was -19.4% (inactive). With COC(=O)C[C@@H]1CC[C@@H]2[C@@H](COc3ccc(NC(=O)Cc4cccs4)cc3C(=O)N2C)O1 the activity change, negative = cytotoxicity was -8.47% (inactive). In the case of Cc1[nH]c(=S)sc1Cc1ccc(Cl)c(Cl)c1, the activity change, negative = cytotoxicity is reported as 20.1% (inactive).
